Experimental findings from US10870630B2, “Substituted bicyclic heteroaryl allosteric modulators of nicotinic acetylcholine receptors” (Merck Sharp & Dohme Corp., priority 2016, dated 2020) are described below.

For the test, the target named is human α7 nicotinic acetylcholine receptor (α7 nAChR) (Homo sapiens, UniProt P36544). Description: Automated patch-clamp electrophysiology functional assay (Assay A). The format is cell-based. To be noted: HEK cell line stably expressing human RIC-3 and human α7, IonFlux HT whole-cell population patch, 40 μM acetylcholine. Here is the method: The α7 nAChR positive allosteric modulator (PAM) activity of the present compounds may be tested using assays known in the art. The α7 nAChR PAMs described herein have activities in an automated patch-clamp electrophysiology functional assay as described in the examples. The assay was performed using the IonFlux HT in a whole-cell, population patch configuration. See Golden et al. Assay Drug Dev. Technol. (2011) 9:608-619. The compounds were assessed for their ability to modulate the function of the human […] nAChR stably expressed in a HEK cell line both in the presence, and in the absence of the natural 07 agonist acetylcholine. By performing a series of such measurements at different concentrations, the effective concentration of the α7 nAChR PAMs (EC50) was determined. See Spencer et al. Assay Drug Dev. Technol. (2012) 10:313-324.
Sequence of human α7 nicotinic acetylcholine receptor (α7 nAChR) (P36544 23-502): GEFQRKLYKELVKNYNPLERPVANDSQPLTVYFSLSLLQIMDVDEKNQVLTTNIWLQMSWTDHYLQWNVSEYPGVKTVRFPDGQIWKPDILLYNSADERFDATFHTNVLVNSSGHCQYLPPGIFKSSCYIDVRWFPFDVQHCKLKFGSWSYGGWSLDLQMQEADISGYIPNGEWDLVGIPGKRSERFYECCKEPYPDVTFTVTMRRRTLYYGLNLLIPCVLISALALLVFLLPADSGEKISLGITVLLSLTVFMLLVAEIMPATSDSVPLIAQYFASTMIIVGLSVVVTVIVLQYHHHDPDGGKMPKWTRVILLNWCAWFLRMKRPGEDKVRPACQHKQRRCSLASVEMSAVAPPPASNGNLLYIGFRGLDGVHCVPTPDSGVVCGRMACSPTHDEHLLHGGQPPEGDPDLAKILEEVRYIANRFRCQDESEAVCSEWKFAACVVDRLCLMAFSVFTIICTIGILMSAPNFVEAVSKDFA
Automated patch-clamp electrophysiology was performed using the IonFlux HT (Fluxion Biosciences Inc., San Francisco, Calif.) in the whole-cell, population patch configuration. Test compounds were assessed for their ability to modulate the function of the α7 nicotinic acetylcholine receptor both in the presence, and in the absence of the natural α7 agonist acetylcholine. A HEK cell line stably expressing both human RIC-3 and human α7 (PrecisION hnAChR α7/RIC-3, Eurofins Pharma, St. Charles, Mo.) was cultured in 175 cm^2 triple-layer tissue culture flasks to no more than 90% confluency in DMEM/F-12 growth media supplemented with 10% heat-inactivated fetal bovine serum, 1% non-essential amino acids, 0.625 μg/mL Puromycin, and 400 μg/mL Geneticin. Immediately prior to assay, cells were detached by first aspirating growth media, rinsing with Dulbecco's phosphate buffered saline, and then adding 10 mL of Accutase (Innovative Cell Technologies, San Diego, Calif.) to the flask and then incubating at 37° C. for 5 minutes. Detached cells were then recovered by the addition of 40 mL of CHO-serum-free media supplemented with 25 mM HEPES, and rocked gently in a 50 mL conical tube for 20 minutes prior to patch-clamp assay. After recovery, cells were pelleted by centrifugation at 1,000 RPM for 1 minute in a compact bench top centrifuge; recovery media was aspirated and cells were resuspended in external recording solution (150 mM NaCl, 5 mM KCl, 2 mM CaCl2, 1 mM MgCl2, 10 mM HEPES, 12 mM dextrose) to a density of 5.0×10^6 cells/mL. The cell suspension was added to the cell inlet wells on an IonFlux HT population patch plate which had previously been rinsed and primed with deionized H2O. Test compounds were serially diluted in DMSO and then resuspended to the final test concentration in external recording solution, with, or without 40 μM acetylcholine added to the external recording solution; test compounds were then transferred to the IonFlux HT population patch plate. Internal recording solution (110 mM TrisPO4, 28 mM TrisBase, 0.1 mM CaCl2, 2 mM MgCl2, 11 mM EGTA, 4 mM MgATP) was added to the internal recording solution inlet wells on the IonFlux HT patch plate previously loaded with cells and test compounds, and the plate loaded into the IonFlux HT instrument. A protocol was executed on the IonFlux HT to trap the cells, break into the cells, and establish the whole-cell recording configuration; cells were voltage-clamped at a holding potential of −60 mV for the duration of the experiment, all experiments were conducted at room temperature, and the IonFlux HT injection pressure was 8 psi for solution applications. Upon establishing the whole-cell configuration, external recording solution was perfused into the recording chambers for 120 seconds and then 40 μM acetylcholine was applied for 1 second and immediately washed off with external recording solution for 60 seconds. The 40 μM acetylcholine-evoked α7 current served as the current response to which subsequent test compound effects, in the presence, or in the absence of 40 μM acetylcholine would be quantified relative to. […]
For orientation: In patch-clamp work, channel activity is measured electrically.

Each structure is given as a SMILES string. Read-outs that look alike come from different tables or passages of the source. Some results are limits rather than exact numbers.

On to `NS(=O)(=O)c1ccc([C@@H]2C[C@H]2c2nc3ccccc3o2)cc1` [Example 5, 4-[(1R,2R)-2-(1,3-Benzoxazol-2-yl)cyclopropyl]benzenesulfonamide], for which the EC50 was 160 nM (read-out: α7 nAChR EC50) and 100 to 500 nM (read-out: α7 nAChR Potency). With `CC1(C)[C@H](c2ccc(S(N)(=O)=O)cc2)[C@H]1c1nc2c(F)cc(F)cc2s1` [Example B8, 4-[(1R,3R)-3-(4,6-Difluoro-1,3-benzothiazol-2-yl)-2,2-dimethyl-cyclopropyl]benzenesulfonamide], the EC50 (read-out: α7 nAChR Potency) was in the range of 100 to 500 nM. `NS(=O)(=O)c1ccc([C@@H]2[C@@H](c3nc4ccccc4o3)C2(F)F)cc1` [Example B11, 4-[(1S,3S)-3-(1,3-Benzoxazol-2-yl)-2,2-difluoro-cyclopropyl]benzenesulfonamide]: the EC50 (read-out: α7 nAChR EC50) was 430 nM and the EC50 (read-out: α7 nAChR Potency) is 100 to 500 nM. `NS(=O)(=O)c1ccc(C2CC2c2ccc3cc(Cl)ncc3c2)cc1` (racemic) [Example E6, 4-[2-(3-Chloro-7-isoquinolyl)cyclopropyl]benzenesulfonamide]: the EC50 is, setting by setting: (read-out: α7 nAChR EC50) 1200 nM; (read-out: α7 nAChR Potency) 500 to 5000 nM.

`CC1(C)[C@H](c2ccc(S(N)(=O)=O)cc2)[C@H]1c1nc2ccccc2s1` [Example B3, 4-[(1R,3R)-3-(1,3-Benzothiazol-2-yl)-2,2-dimethyl-cyclopropyl]benzenesulfonamide]: the EC50 is 3400 nM (read-out: α7 nAChR EC50) and 500 to 5000 nM (read-out: α7 nAChR Potency). For `CC1(C)[C@H](c2ccc(S(N)(=O)=O)cc2)[C@H]1c1nc2ccc(Cl)cc2o1` [Example B5, 4-[(1R,3R)-3-(6-Chloro-1,3-benzoxazol-2-yl)-2,2-dimethyl-cyclopropyl]benzenesulfonamide], the EC50 (read-out: α7 nAChR Potency) fell in the range of 100 to 500 nM.

As for `CC1(C)[C@@H](c2ccc(S(N)(=O)=O)cc2)[C@@H]1c1nc2ccc(F)cc2o1` [Example 2, 4-[(1S,3S)-3-(6-Fluoro-1,3-benzoxazol-2-yl)-2,2-dimethylcyclopropyl]benzenesulfonamide], the EC50 is 71 nM (read-out: α7 nAChR EC50) and no more than 100 nM (read-out: α7 nAChR Potency). With `NS(=O)(=O)c1ccc([C@H]2[C@H](c3nc4ccccc4s3)C2(F)F)cc1` [Example A8, 4-[(1R,3S)-3-(1,3-Benzothiazol-2-yl)-2,2-difluoro-cyclopropyl]benzenesulfonamide], the EC50 was 38 nM (read-out: α7 nAChR EC50) and no more than 100 nM (read-out: α7 nAChR Potency). Turning to `Cn1cc2ccc(C3CC3c3ccc(S(N)(=O)=O)cc3)cc2n1` (racemic) [Example E12, 4-[2-(2-Methylindazol-6-yl)cyclopropyl]benzenesulfonamide], the EC50 runs as follows: (read-out: α7 nAChR EC50) 5000 nM; (read-out: α7 nAChR Potency) 500 to 5000 nM. As to `CC1(C)[C@@H](c2ccc(S(N)(=O)=O)cc2)[C@@H]1c1ncc2c(F)cccc2n1` [Example C2, 4-[(1S,3S)-3-(5-Fluoroquinazolin-2-yl)-2,2-dimethyl-cyclopropyl]benzenesulfonamide], for the setting “read-out: α7 nAChR Potency”, the EC50 is 500 to 5000 nM.

On to `COc1ccc2oc([C@@H]3[C@@H](c4ccc(S(N)(=O)=O)cc4)C3(C)C)nc2c1` [Example B10, 4-[(1R,3R)-3-(5-Methoxy-1,3-benzoxazol-2-yl)-2,2-dimethyl-cyclopropyl]benzenesulfonamide], for which the EC50 (read-out: α7 nAChR EC50) was found to be 660 nM and the EC50 (read-out: α7 nAChR Potency) was in the range of 500 to 5000 nM. Consider `Cn1c([C@@H]2[C@@H](c3ccc(S(N)(=O)=O)cc3)C2(C)C)nc2cc(F)cc(F)c21` [Example D4, 4-[(1R,3R)-3-(5,7-Difluoro-1-methyl-benzimidazol-2-yl)-2,2-dimethyl-cyclopropyl]benzenesulfonamide], for which the EC50 (read-out: α7 nAChR Potency) was 5000 to 50000 nM.

For the compound `NS(=O)(=O)c1ccc(C2CC2c2cc3ccncc3s2)cc1` (racemic) [Example E7, 4-(2-Thieno[2,3-c]pyridin-2-ylcyclopropyl)benzenesulfonamide], where the note is “read-out: α7 nAChR Potency”, the EC50 lay within 500 to 5000 nM. For the compound `CC1(C)[C@H](c2ccc(S(N)(=O)=O)cc2)[C@H]1c1nc2cc(Cl)ccc2o1` [Example B6, 4-[(1R,3R)-3-(5-Chloro-1,3-benzoxazol-2-yl)-2,2-dimethyl-cyclopropyl]benzenesulfonamide], the EC50 is, setting by setting: (read-out: α7 nAChR EC50) 200 nM; (read-out: α7 nAChR Potency) 100 to 500 nM. As for `NS(=O)(=O)c1ccc(C2CC2c2cnc3occc3c2)cc1` (racemic) [Example E11, 4-(2-Furo[2,3-b]pyridin-5-ylcyclopropyl)benzenesulfonamide], the EC50 (read-out: α7 nAChR Potency) fell in the range of 500 to 5000 nM.

`CC1(C)OC([C@@H]2[C@@H](c3ccc(S(N)(=O)=O)cc3)C2(F)F)=Nc2ccccc21` [Example D5, 4-[(1S,3S)-3-(4,4-Dimethyl-4H-3,1-benzoxazin-2-yl)-2,2-difluorocyclopropyl]benzenesulfonamide]: the EC50 by setting is: (read-out: α7 nAChR EC50) 1100 nM; (read-out: α7 nAChR Potency) 500 to 5000 nM. Consider `CC1(C)[C@@H](c2ccc(S(N)(=O)=O)cc2)[C@@H]1c1nc2ccccc2s1` [Example 9], for which the EC50 (read-out: α7 nAChR EC50) worked out at 350 nM and the EC50 (read-out: α7 nAChR Potency) lay within 100 to 500 nM.
